In paper PMC1431542, “Cyclic nucleotide specific phosphodiesterases of Leishmania major” (BMC Microbiology, 2006):

Assays:
LmjPDEB1 = biological target: T1, LmjPDEB1 (Leishmania major, UniProt Q6S996); experiment: 3H-cAMP phosphodiesterase assay in yeast lysate; type: cell-based
T1 construct: gene PDEB1; full-length, hemagglutinin-tagged
T1 sequence (Q6S996 1-940): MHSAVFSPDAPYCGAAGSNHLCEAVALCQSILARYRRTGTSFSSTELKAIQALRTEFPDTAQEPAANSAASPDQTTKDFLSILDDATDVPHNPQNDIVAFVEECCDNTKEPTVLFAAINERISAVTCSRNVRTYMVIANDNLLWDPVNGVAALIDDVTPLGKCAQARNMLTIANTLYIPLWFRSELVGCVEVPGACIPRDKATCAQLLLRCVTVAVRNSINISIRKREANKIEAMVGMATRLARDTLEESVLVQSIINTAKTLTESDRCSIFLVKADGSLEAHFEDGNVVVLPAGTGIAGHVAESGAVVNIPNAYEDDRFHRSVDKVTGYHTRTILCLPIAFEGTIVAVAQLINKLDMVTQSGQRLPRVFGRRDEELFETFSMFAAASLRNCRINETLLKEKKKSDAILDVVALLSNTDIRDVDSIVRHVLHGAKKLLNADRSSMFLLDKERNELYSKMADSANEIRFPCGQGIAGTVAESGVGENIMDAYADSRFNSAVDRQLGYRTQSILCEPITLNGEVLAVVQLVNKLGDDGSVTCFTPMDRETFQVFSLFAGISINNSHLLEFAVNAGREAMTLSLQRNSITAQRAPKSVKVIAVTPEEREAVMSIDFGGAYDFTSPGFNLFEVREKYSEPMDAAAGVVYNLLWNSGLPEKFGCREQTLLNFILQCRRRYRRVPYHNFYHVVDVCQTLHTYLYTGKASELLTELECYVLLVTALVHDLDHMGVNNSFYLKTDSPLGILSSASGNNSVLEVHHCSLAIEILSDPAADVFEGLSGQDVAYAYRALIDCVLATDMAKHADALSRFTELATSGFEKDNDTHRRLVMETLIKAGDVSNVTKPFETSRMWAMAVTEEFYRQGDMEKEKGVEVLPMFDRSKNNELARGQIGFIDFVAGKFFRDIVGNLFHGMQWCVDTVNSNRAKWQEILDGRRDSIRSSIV

LmjPDEB2 = biological target: T2, LmjPDEB2 (Leishmania major, UniProt Q6S997); experiment: biochemical
T2 construct: gene PDEB2; full-length, hemagglutinin-tagged
T2 sequence (Q6S997 entry or part of it): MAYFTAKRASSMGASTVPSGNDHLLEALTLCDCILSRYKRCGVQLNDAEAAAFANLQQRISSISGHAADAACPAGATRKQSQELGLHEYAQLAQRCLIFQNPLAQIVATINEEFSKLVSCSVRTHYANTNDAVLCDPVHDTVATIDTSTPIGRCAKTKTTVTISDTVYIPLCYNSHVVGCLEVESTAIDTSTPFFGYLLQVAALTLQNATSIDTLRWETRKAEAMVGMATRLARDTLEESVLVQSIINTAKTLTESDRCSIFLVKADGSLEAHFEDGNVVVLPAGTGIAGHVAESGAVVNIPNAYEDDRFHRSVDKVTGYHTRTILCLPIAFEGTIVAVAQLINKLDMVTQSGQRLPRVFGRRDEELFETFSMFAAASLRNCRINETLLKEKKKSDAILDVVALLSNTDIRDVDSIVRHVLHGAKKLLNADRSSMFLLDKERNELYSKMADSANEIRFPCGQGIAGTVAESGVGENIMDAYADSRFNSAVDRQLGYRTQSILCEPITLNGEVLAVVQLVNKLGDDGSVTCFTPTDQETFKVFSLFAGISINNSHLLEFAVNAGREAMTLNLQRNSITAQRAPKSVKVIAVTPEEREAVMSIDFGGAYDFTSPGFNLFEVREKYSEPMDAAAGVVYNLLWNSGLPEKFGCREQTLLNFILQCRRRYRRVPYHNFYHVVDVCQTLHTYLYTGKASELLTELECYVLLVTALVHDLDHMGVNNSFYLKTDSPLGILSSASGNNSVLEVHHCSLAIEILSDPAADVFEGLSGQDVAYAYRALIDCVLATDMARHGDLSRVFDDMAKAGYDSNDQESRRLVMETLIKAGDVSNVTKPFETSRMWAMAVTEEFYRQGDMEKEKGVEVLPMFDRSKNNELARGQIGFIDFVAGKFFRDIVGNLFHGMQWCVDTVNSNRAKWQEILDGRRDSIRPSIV

| Compound | 3H-cAMP phosphodiesterase assay in yeast lysate (LmjPDEB1) | IC50 (LmjPDEB2) |
| --- | --- | --- |
| CCOC(=O)c1cnc2c(cnn2CC)c1NN=C(C)C [compound 3, etazolate] | Only dipyridamole, trequinsin and etazolate exhibited at least a moderate potency. |  |
| OCCN(CCO)c1nc(N2CCCCC2)c2nc(N(CCO)CCO)nc(N3CCCCC3)c2n1 [compound 4, dipyridamole] | Only dipyridamole, trequinsin and etazolate exhibited at least a moderate potency. | 29 µM |
| COc1cc2c(cc1OC)-c1c/c(=N\c3c(C)cc(C)cc3C)n(C)c(=O)n1CC2 [compound 9, trequinsin] | Only dipyridamole, trequinsin and etazolate exhibited at least a moderate potency. | 96 µM |
